Source: patent US10441589B2, “Combinations and methods comprising a capsid assembly inhibitor” (Novira Therapeutics, Inc., priority 2016, dated 2019)
Structures can show the parent of a compound that is named as a salt. Where two headings read alike, the source gives them in different places. Marks after values point to notes of the source that are not given here.

Legend:
[1] = system: primary human hepatocytes; assay: Cell viability of primary human hepatocytes (CellTiter-Glo, intracellular ATP); assay type: cell-based; conditions: 6 days; for cell viability at single concentrations: 30 or 300 μM LMV, 30 μM TFV, 30 μM ETV, three donors
Experimental: (§1) Cryopreserved primary human hepatocytes from individual donors (primary hepatocyte IDs: HuM4038, HuM4055A, and HuM4059) were purchased from Triangle Research Labs (TRL; Research Triangle Park, N.C.). Cells were thawed using hepatocyte thawing medium (TRL, Catalog#MCHT50) according to manufacturers' recommendations. After centrifugation, cells were resuspended in supplemented hepatocyte plating medium (TRL, Catalog#MP250). Cells were plated in collagen Type I coated 96-well plates (Corning; Corning, N.Y.; Catalog#356407) at a density of 40,000 cells per well and maintained in humidified incubators at 37° C. and 5% CO2 overnight prior to addition of test compounds.
(§2) For each donor, three 96-well plates were set up to evaluate the effect of increasing concentrations of Compound 1 either alone or in combination with nucleoside analogs on hepatocyte cell viability. On each plate, cells were incubated with Compound 1 alone as duplicates, or Compound 1 in the presence of LMV, TFV, or ETV as triplicates. The effects of nucleoside analogs alone on hepatocyte cell viability were also determined in triplicates for each donor. Compound 1 was half-log serially diluted in DMSO (Sigma, Catalog #D2650) and added to primary human hepatocytes either alone or in combination with LMV (30 and 300 μM), TFV (30 μM), or ETV (30 μM). Single and combined drugs were added to primary human hepatocytes at a final DMSO (Sigma D2650) concentration of 0.5% across all concentrations. Cells were incubated with compounds for three days, after which medium was removed and fresh medium containing compounds was added and incubated for another three days. As a no compound control, primary human hepatocytes were treated with 0.5% DMSO, and these values were then used to define the 0% inhibition level. Background signal was determined as the mean value from wells containing only culture medium. Cell viability was monitored by using CellTiter-Glo cell viability reagent according to the manufacturer protocol (Promega; Madison, Wis.; G7573). Chemiluminescence signal proportional to the amount of cellular ATP was measured by using the Victor X4 plate reader (Perkin Elmer; Waltham, Mass.). The mean background signal from the medium only wells was subtracted from all other samples, and percent inhibition was calculated using equation E1 (as in Example 1): % inhibition=(DMSOave−Xi)/DMSOave×100% (E1):
(§3) where DMSOave is the mean signal calculated from the wells that were treated with 0.5% DMSO control (0% inhibition control) and X, is the signal measured from the individual wells. CC50 values were determined from the % inhibition data obtained at different compound concentrations by non-linear fitting using Graphpad Prism software and equation E3, in cases were % inhibition values exceeded 50% at the highest concentration tested. Y=Ymin+(Ymax−Yin)/(1+10^(LogCC50−X)×HillSlope) (E3):
(§4) where Y represents percent inhibition values and X represents the logarithm of compound concentrations.

[2] = system: HBV DNA replication in HepG2.2.15 cells; assay: 6-day HBV antiviral assay in HepG2.2.15 cells, qPCR of HBV DNA in supernatant, MacSynergy II; assay type: cell-based
Experimental: The anti-HBV activity of combinations of Compound 2 and Compound 3 with the nucleos(t)ide analogues ETV or TFV was assessed in a 6-day HBV antiviral assay using qPCR for the detection of HBV DNA in the cell culture supernatant as a read-out. The combination effect was analyzed using Mac Synergy II software. The anti-HBV activity of ETV and TFV when tested as single agents in HepG2.2.15 cells as well (Table 14).
During the antiviral testing, HepG2.2.15 cells were cultured in RPMI1640 medium and the FBS was reduced to 2%. Cells were plated at a density of 50.000 cells per well into a 96-well plate.
One day after seeding of the HepG2.2.15 cells, the supernatant was removed and 200 μL medium with test compounds, diluted in a checkerboard fashion, was added to the cells. […] HBV DNA was detected by quantitative real time PCR (qPCR). HBV DNA was quantified by a real-time PCR assay using a LightCycler480 Probes Master kit (Roche) with primers 5′-[sequence]-3′ (sense) and 5′-[sequence]-3′ (antisense, SEQ ID NO: 7). […]
The percentage inhibition values obtained for each combination of compound concentration was calculated as the average of 3 to 5 replicate plates of the same combination per experiment. To robustly identify outliers, the distance from the average of the other 4 replicates was calculated for every data point. […]

[3] = Cell viability of primary human hepatocytes (CellTiter-Glo, intracellular ATP); assay type: cell-based; conditions: human, cryopreserved primary human hepatocytes
Experimental: as §1, §2, §3, §4

wild type HBV = assay: Antiviral activity in HepG2 cells transiently transfected with wild-type HBV, intracellular encapsidated HBV DNA; assay type: cell-based, HBV genotype B; conditions: Hepatitis B virus, 72 h, HepG2 transient transfection, 3 days, mean ± SD, at least three studies, read-out: WT EC50
Experimental: (§5) In this example, the antiviral activity of Compound 1 was determined using HepG2 liver cells transiently transfected with plasmids expression replication-competent HBV DNA and quantitation of intracellular encapsidated HBV DNA. The antiviral activity of Compound 1 was measured against nucleoside inhibitor sensitive, wild-type HBV, as well as against HBV variants resistant to nucleoside analogs that contain defined amino acid changes in the coding sequence of the reverse transcriptase protein: rtL180M/M204V, rtN236T, rtA181V, rtA181V/N236T, and rtL180M/M204V/N236T.
(§6) Plasmid DNA constructs containing a 1.1×HBV genome under the control of a CMV promoter were previously cloned from serum of an HBV infected patient prior to LMV treatment (Genbank AY220698, Fudan University, China; SEQ ID NO:1, see Table 1) and after development of resistance to LMV (Genbank AY220697, Fudan University, China; SEQ ID NO:2, see Table 1) (Zhang J M et al. 2005. J Med Virol 77: 203-208). Genotyping analysis confirmed that both isolates belong to genotype B HBV, and that the isolate collected after the development of resistance to LMV contained two amino acid changes within the polymerase gene (L180M/M204V). The HBV variant was named rtL180M/M204V to indicate that the amino acid changes were present in the reverse transcriptase (rt) protein. Two additional plasmids were generated by introducing coding sequence changes resulting in the amino acid changes N236T and A181V in the HBV polymerase, respectively. The nucleotide changes were introduced into the wild type genotype B plasmid by site directed mutagenesis according to manufacturer recommendation (Agilent Technologies; Santa Clara, Calif.; Catalog#200519) using the following primers and their corresponding reverse complement sequence (nucleotide change underlined): 5′-CTTTGGGTATACATTTAACCCCTCACAAAAC-3′ (rtN236T; SEQ ID NO:3), 5′-GTCCGTTTCTCTTGGTTCAGTTTACTAGTG-3′ (rtA181V; SEQ ID NO:4). In two additional plasmid constructs, the rtN236T amino acid change was also added into the rtA181V and rtL180M/M204V plasmids to generate the rtA181V/N236T double mutant and rtL180M/M204V/N236T triple mutant HBV variants, respectively. […]
(§7) HepG2 cells were seeded in collagen coated 96-well plates (BIOCOAT™; Fisher Scientific, Catalog#354407) at a density of 20,000 cells/well and allowed to attach overnight at 37° C. and 5% CO2. […] Cells were incubated with compounds for three days, after which intracellular HBV DNA was extracted from cells and levels of secreted Gaussian luciferase was determined from the medium using the Gaussia Flash Luciferase assay kit (THERMO SCIENTIFIC™, Fisher Scientific, Catalog#16158). […]

rtN236T HBV variant = assay: Antiviral activity in HepG2 cells transiently transfected with rtN236T HBV variant; assay type: cell-based, HBV genotype B; conditions: EC50 fold change relative to mean wild-type EC50; mean ± SD
Experimental: as §5, §6, §7

[4] = system: rtL180M/M204V HBV variant; assay: Antiviral activity in HepG2 cells transiently transfected with rtL180M/M204V HBV variant; assay type: cell-based, HBV genotype B; conditions: for Fold Change rtL180M/M204V: EC50 fold change relative to mean wild-type EC50, mean ± SD
Experimental: as §5, §6, §7

[5] = system: rtL180M/M204V/N236T HBV variant; assay: Antiviral activity in HepG2 cells transiently transfected with rtL180M/M204V/N236T HBV variant; assay type: cell-based, HBV genotype B; conditions: EC50 fold change relative to mean wild-type EC50; mean ± SD
Experimental: as §5
(§8) Plasmid DNA constructs containing a 1.1×HBV genome under the control of a CMV promoter were previously cloned from serum of an HBV infected patient prior to LMV treatment (Genbank AY220698, Fudan University, China; SEQ ID NO:1, see Table 1) and after development of resistance to LMV (Genbank AY220697, Fudan University, China; SEQ ID NO:2, see Table 1) (Zhang J M et al. 2005. J Med Virol 77: 203-208). Genotyping analysis confirmed that both isolates belong to genotype B HBV, and that the isolate collected after the development of resistance to LMV contained two amino acid changes within the polymerase gene (L180M/M204V). The HBV variant was named rtL180M/M204V to indicate that the amino acid changes were present in the reverse transcriptase (rt) protein. Two additional plasmids were generated by introducing coding sequence changes resulting in the amino acid changes N236T and A181V in the HBV polymerase, respectively. […]
as §7

[6] = system: rtA181V/N236T HBV variant; assay: Antiviral activity in HepG2 cells transiently transfected with rtA181V/N236T HBV variant; assay type: cell-based, HBV genotype B; conditions: EC50 fold change relative to mean wild-type EC50; mean ± SD
Experimental: In this example, the antiviral activity of Compound 1 was determined using HepG2 liver cells transiently transfected with plasmids expression replication-competent HBV DNA and quantitation of intracellular encapsidated HBV DNA. The antiviral activity of Compound 1 was measured against nucleoside inhibitor sensitive, wild-type HBV, as well as against HBV variants resistant to nucleoside analogs that contain defined amino acid changes in the coding sequence of the reverse transcriptase protein: rtL180M/M204V, rtN236T, rtA181V, rtA181V/N236T, and rtL180M/M204V/N236T. […]
as §7

rtA181V HBV variant = assay: Antiviral activity in HepG2 cells transiently transfected with rtA181V HBV variant; assay type: cell-based, HBV genotype B; conditions: for Fold Change rtA181V: EC50 fold change relative to mean wild-type EC50, mean ± SD
Experimental: as §5, §8, §7

[7] = donor HuM4038, first HuM4038 column of Table 3, 6 days, read-out: HuM4038 CC50
[8] = donor HuM4038, second HuM4038 column of Table 3, 6 days, read-out: HuM4038 CC50
[9] = donor HuM4055A, 6 days, read-out: HuM4055A CC50
[10] = donor HuM4059, 6 days, read-out: HuM4059 CC50

| Structure (SMILES) | cell viability at single concentrations [1] | CC50 at 6 days [3, 7] [µM] | CC50 at 6 days [3, 8] [µM] | CC50 at 6 days [3, 9] [µM] | CC50 at 6 days [3, 10] [µM] | EC50 (wild type HBV) [µM] | Fold Change rtN236T (rtN236T HBV variant) | Fold Change rtL180M/M204V [4] | Fold Change rtL180M/M204V/N236T [5] | Fold Change rtA181V/N236T [6] | Fold Change rtA181V (rtA181V HBV variant) | further results |
| --- | --- | --- | --- | --- | --- | --- | --- | --- | --- | --- | --- | --- |
| C[C@H](Cn1cnc2c(N)ncnc21)OCP(=O)(O)O [TFV, tenofovir] | No reduction of cell viability | – | – | – | – | – | – | – | – | – | – | CC50 ([1]; donor HuM4038, first HuM4038 column of Table 3, read-out: HuM4038 CC50): > 30 µM; CC50 ([1]; donor HuM4038, second HuM4038 column of Table 3, read-out: HuM4038 CC50): > 30 µM; CC50 ([1]; donor HuM4055A, read-out: HuM4055A CC50): > 30 µM; CC50 ([1]; donor HuM4059, read-out: HuM4059 CC50): > 30 µM; EC50 ([2]; single agents in HepG2.2.15 cells, read-out: Median EC50): 15 nM |
| C=C1[C@H](CO)[C@@H](O)C[C@@H]1n1cnc2c(=O)[nH]c(N)nc21 [ETV, entecavir] | No reduction of cell viability | > 30 | > 30 | > 30 | > 30 | 0.0014 ± 0.0004 | 0.67 ± 0.22^ns | – | – | – | – | EC50 ([2]; Hepatitis B virus, HepG2.2.15, read-out: Median EC50): 0.07 nM |
| Nc1ccn([C@@H]2CS[C@H](CO)O2)c(=O)n1 [LMV, Lamivudine] | No reduction of cell viability | > 30 | > 300 | > 300 | > 300 | 0.53 | 1.0 ± 0.5^ns | >190 | >190 | – | – | – |
| CC(C)OC(=O)OCOP(=O)(CO[C@H](C)Cn1cnc2c(N)ncnc21)OCOC(=O)OC(C)C [TDF, tenofovir disoproxil fumarate] | – | – | – | – | – | 0.032 | 2.2 ± 1.0^b | 1.1 ± 0.3^ns | 2.9 ± 1.5^b | 2.8 ± 1.4^b | 1.4 ± 0.05^ns | EC50 ([4]; Hepatitis B virus, HepG2, read-out: mean EC50 against rtL180M/M204V variant): 0.034 µM; EC50 (rtA181V HBV variant; Hepatitis B virus, HepG2, read-out: mean EC50 against rtA181V variant): 0.043 µM |
| O=C(Nc1cc(F)c(F)c(F)c1)c1ccc(F)c(S(=O)(=O)N2CCC(O)CC2)c1 [Compound 1, 4-fluoro-3-((4-hydroxypiperidin-1-yl)sulfonyl)-N-(3,4,5,-trifluorophenyl)benzamide] | – | 16 | 26 | 19 | 82 | 0.31 ± 0.1 | 0.85 ± 0.40^ns | 1.3 ± 0.6^ns | 1.4 ± 0.5^ns | 0.85 ± 0.26^ns | 0.82 ± 0.19^ns | CC50 at 6 days ([3]; Table 4, alone, donor HuM4038, read-out: Cmpd (I) CC50): 26 µM; CC50 at 6 days ([3]; Table 4, alone, donor HuM4055A, read-out: Cmpd (I) CC50): 19 µM; CC50 at 6 days ([3]; Table 4, alone, donor HuM4059, read-out: Cmpd (I) CC50): 83 µM; CC50 at 6 days ([3]; Table 5, alone, donor HuM4038, read-out: Cmpd (I) CC50): 16 µM; CC50 at 6 days ([3]; Table 5, alone, donor HuM4055A, read-out: Cmpd (I) CC50): 19 µM; CC50 at 6 days ([3]; Table 5, alone, donor HuM4059, read-out: Cmpd (I) CC50): 83 µM; CC50 at 6 days ([3]; Table 6, alone, donor HuM4038, read-out: Cmpd (I) CC50): 16 µM; CC50 at 6 days ([3]; Table 6, alone, donor HuM4055A, read-out: Cmpd (I) CC50): 19 µM; CC50 at 6 days ([3]; Table 6, alone, donor HuM4059, read-out: Cmpd (I) CC50): 83 µM; CC50 at 6 days ([3]; range over three donors (HuM4038, HuM4055A, HuM4059), 6 days, read-out: CC50 values, range): 16 to 82 µM |
